The text below walks through data of patent US20130296311A1, “INHIBITORS OF HCV NS5A” (PRESIDIO PHARMACEUTICALS, INC., priority 2010, published 2013).

pEC50: −log10 of the molar value. Like-named read-outs stand apart in the source and are kept apart here. Where only a bound is given, the exact number is not on record here.

The test has as its system HCV 1b_Huh-Luc/Neo-ET cell line persistently expressing a bicistronic genotype 1b replicon in Huh 7 cells. Put plainly: HCV replicon assay (luciferase readout, 72 h). Format: cell-based, HCV genotype 1b. Particulars: Hepatitis C virus. The method in brief:
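Huh 7 cells carrying a bicistronic genotype 1b luciferase/neo replicon received compound in triplicate the day after plating. After 72 h, replicon levels were read as Bright-Glo luciferase activity, expressed as % of control; EC50 was fitted with a four-parameter logistic and determined several times.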
In general terms: Replicon systems follow genome replication, usually without infectious particles.

The mark [1] stands for this setting: Huh-7, 72 h, read-out: Inhibition of HCV genotype 1b.
Setting [2] is: Huh-7, read-out: Inhibition of HCV genotype 1b.

`CC1(O)CCN(C(=O)N[C@@H](C(=O)N2CCC[C@H]2c2nc(-c3ccc4cc(C#Cc5cnc([C@@H]6CCCN6C(=O)[C@H](NC(=O)N6CCC(C)(O)CC6)c6ccccc6)[nH]5)ccc4c3)c[nH]2)c2ccccc2)CC1` [Compound 805]: the pEC50 under setting [1] is over 9.00. The same measure, in the same setting: for `COC(=O)N[C@H](C(=O)N1CCC[C@H]1c1ncc(-c2ccc(C#Cc3ccc(-c4cnc([C@@H]5CCCN5C(=O)[C@@H](NC(=O)OC)C(C)C)[nH]4)c(F)c3)cc2)[nH]1)C(C)C` [Compound 1011] the value was over 9.00; for `COC(=O)N[C@H](C(=O)N1CCC[C@H]1c1ncc(-c2ccc3nc(C#Cc4ccc5nc([C@@H]6CCCN6C(=O)[C@@H](NC(=O)OC)C6CCOCC6)[nH]c5c4)ccc3c2)[nH]1)C1CCOCC1` [Compound 1108], over 9.00. Same read-out and setting: for `COC(=O)N[C@H](C(=O)N1CCC[C@H]1c1ncc(C#Cc2ccc(-c3ccc4nc([C@@H]5CCCN5C(=O)[C@H](NC(=O)OC)c5ccccc5)[nH]c4c3)nc2)[nH]1)C(C)C` [Compound 1087] the value was over 9.00. For the compound `COC(=O)N[C@H](C(=O)N1CCC[C@H]1c1ncc(-c2ccc(C#Cc3ccc4nc([C@@H]5CCCN5C(=O)[C@@H](NC(=O)OC)C(C)(C)C)[nH]c4c3)cc2)[nH]1)C(C)(C)C` [Compound 1041], the pEC50 under setting [1] was over 9.00. On the same count and under the same terms, for `COC(=O)N[C@H](C(=O)N1CCC[C@H]1c1ncc(-c2ccc(C#Cc3ccc4nc([C@@H]5CCCN5C(=O)[C@@H](NC(=O)OC)[C@H](C)O)[nH]c4c3)cc2)[nH]1)[C@H](C)O` [Compound 1031] the value was over 9.00. For the compound `COC(=O)N[C@H](C(=O)N1CCC[C@H]1c1ncc(-c2ccc(C#Cc3ccc4nc([C@@H]5CCCN5C(=O)[C@@H](NC(=O)OC)C(C)C)[nH]c4n3)cc2)[nH]1)C(C)C` [Compound 1249], under setting [2], the pEC50 is over 9.00. On to `COC(=O)N[C@H](C(=O)N1CCC[C@H]1c1ncc(-c2ccc(C#Cc3ccc(-c4cnc([C@@H]5CCCN5C(=O)[C@H](NC(=O)N5CC[C@@H](O)C5)c5ccccc5)[nH]4)cc3)cc2)[nH]1)C(C)C` [Compound 975], for which, under setting [1], the pEC50 is over 9.00.

For `COC(=O)N[C@H](C(=O)N1CCC[C@H]1c1nc(-c2ccc3cc(C#Cc4[nH]c([C@@H]5CCCN5C(=O)[C@@H](NC(=O)OC)C(C)C)nc4C(F)(F)F)ccc3c2)c[nH]1)C(C)C` [Compound 1082], the pEC50 under setting [1] was over 9.00. `COC(=O)N[C@H](C(=O)N1CCC[C@H]1c1ncc(-c2ccc(C#Cc3ccc(-c4cnc([C@@H]5CCCN5C(=O)[C@@H](NC(=O)OC)C(C)C)[nH]4)cc3C(=O)N3CCCC3)cc2)[nH]1)C(C)C` [Compound 1208]: the pEC50 under setting [2] is over 9.00. As for `CC(C)(C)OC(=O)N1CCC[C@H]1c1ncc(C#Cc2ccc(-c3cnc([C@@H]4CCCN4C(=O)OC(C)(C)C)[nH]3)cc2)[nH]1` [Compound 101], under setting [1], the pEC50 is 6.00 to 8.00. Turning to `CC(C)(C)OC(=O)N[C@@H](C(=O)N1CCC[C@H]1c1ncc(C#Cc2ccc(-c3ccc(-c4cnc([C@@H]5CCCN5C(=O)[C@H](NC(=O)OC(C)(C)C)c5ccccc5)[nH]4)cc3)cc2)[nH]1)c1ccccc1` [Compound 757], under setting [1], the pEC50 is over 9.00. Same read-out and setting: the value for `COC(=O)N[C@@H](Cc1ccccc1)C(=O)N1CCC[C@H]1c1ncc(-c2ccc(C#Cc3ccc4nc([C@@H]5CCCN5C(=O)[C@H](Cc5ccccc5)NC(=O)OC)[nH]c4c3)cc2)[nH]1` [Compound 1045] was over 9.00; that for `CC(C)[C@@H](NC(=O)OC(C)(C)C)C(=O)N1CCC[C@H]1C(=O)NCc1ccc(C#Cc2cnc([C@@H]3CCCN3C(=O)[C@H](NC(=O)OC(C)(C)C)C(C)C)[nH]2)cc1` [Compound 120] was 6.00 to 8.00. Still for that read-out and setting: the value for `COC(=O)N[C@H](C(=O)N1CCC[C@H]1c1ncc(-c2ccc(C#Cc3ccc4nc([C@@H]5CCCN5C(=O)[C@H](NC(=O)OC)C(C)C)[nH]c4c3)cc2)[nH]1)C(C)C` [Compound 1054] was over 9.00; that for `COC(=O)N[C@H](C(=O)N[C@H](c1ncc(-c2ccc(C#Cc3ccc(-c4cnc([C@@H]5CCCN5C(=O)[C@@H](NC(=O)OC)C(C)C)[nH]4)cc3)cc2)[nH]1)C(C)C)C(C)C` [Compound 276] was 8.00 to 9.00.
